Assay results published in patent publication US8187573B2, “In vivo detection of apoptosis” (priority 2005, dated 2012).
Entries after “also recorded” stand apart in the source; their conditions may differ.

Assays:
[1] = test system: Spleen, Liver, Thymus, and CNS tissues; test: In vivo detection of morphine-mediated apoptosis: apoptosis positive cell counts in tissue sections after IV FAM-VAD-FMK; conditions: bone marrow and liver tissues (conclusion)
Description: Spleen, Liver, Thymus, and CNS tissues were isolated from different treatment groups, frozen and mounted on glass slides. The various cell types were adjusted to 1×10^6 cells/mL and cytospun on a glass slide for analysis by fluorescence microscopy. Sections were photographed and analyzed by MetaMorph analysis program for apoptosis positive cell counts. Counts were analyzed by statistics software.
Spleen, Liver, Thymus, and CNS tissues were isolated from different treatment groups, frozen and mounted on glass slides. Sections were photographed and analyzed by MetaMorph analysis program for apoptosis positive cell counts. Counts were analyzed by statistics software.

SCK mammary tumors [2] = test: SCK mammary tumor window chamber model, bright-field imaging of hemorrhaging; type: in vivo, A/J mice; conditions: 8.0 mg/kg ATO
Description: (§1) Using a mouse window chamber model, SCK mammary tumors were evaluated for levels of apoptosis induction in tumors following irradiation treatment with arsenic trioxide (ATO) and heat. A window chamber, used for viewing tumors, was placed over a fold of skin in A/J mice. 2×10^5 SCK mammary carcinoma cells were injected into the skin fold. The tumors were allowed to grow for 7 to 9 days. In the test mice, tumors were irradiated with 20 Gy, 8 mg/kg ATO and 2 hours later the tumors were heated at 41.5° C. for 60 minutes. Control mice were not treated with irradiation or heat and a placebo was injected instead of ATO.
(§2) After allowing the tumors to grow 7 days, the test mice were first irradiated with 20 Gy. This was immediately followed by an intraperitoneal (I.P.) injection of ATO. The ATO was dissolved in water and injected in a solution of PBS with 5% w/v of dextrose at a concentration of 8 mg/kg. After 2 hours the tumors were heated at 41.5° C. for 60 minutes. Control mice received an I.P. injection of PBS with 5% dextrose.
Prior to treatment, tumors were examined in control mice and designated test mice. Low magnification bright-field image composite photographs of SCK mammary tumors taken through a window chamber reveal a low level of hemorrhaging in all tumors (FIG. 1). […]

[3] = test system: FSaII murine fibrosarcoma tumors; test: Longitudinal apoptosis imaging of FSaII tumor in dorsal skin flap chamber (DSFC) with FAM-VAD-FMK; type: in vivo, nu/nu mice
Description: A longitudinal study was performed in nu/nu mice to assess the efficacy of arsenic trioxide (ATO) on FSaII murine fibrosarcoma tumors before and after ATO treatment through a window chamber.
Dorsal skin flap chambers (DSFC) were surgically implanted into the backs of nu/nu mice as follows. Entire implantation procedure was conducted within a laminar flow hood to preserve a sterile field. Skin was washed twice with betadine and allowed to dry. One sterilized chamber piece containing a round window (9 mm) was placed on one side of the dorsal skin fold. Holes for three connecting screws were made through the skin fold connecting with another chamber piece with a similar window. The assembly was then tightened together with screws and nuts through the chamber piece spacers. A circle of cutaneous tissue and fascia was carefully cut away from the skin fold inside the DSFC window, exposing the blood vessels of the subcutaneous tissue adjacent to the striated muscles of the opposing skin fold. Antibiotic ointment (bacitracin zinc/polymyxin B sulfate/neomycin sulfate) was used on the edges of the wound inside the DSFC window. A glass window was placed in the chamber to cover the exposed tissue and secured with a snap C-ring. The surgical wound procedure was then repeated in the opposite DSFC window so that a very thin, transparent layer of fascia and vessels remained visible through both windows (created to facilitate microscope light transmission through the tissue). Finally, the chamber was sutured to the skin.
After surgery, the animals were housed in barrier cages inside a humidified incubator maintained at 32° C. with unrestricted access to food and water. To minimize risk of infection, all mice were given amoxicillin in their drinking water (250 mg per 5 mL water) after DSFC implantation and throughout the experiment.
Tumor cells were implanted into one side of the chamber by temporary removal of the C-ring and glass cover slip. […]

SCK tumor cells = test: Flow cytometry of cells from SCK tumors after in vivo FAM-VAD-FMK labelling; parameters: species or system mouse; conditions: 8.0 mg/kg ATO
Description: In another set of mice, the tumors were allowed to grow for 7 days. Control mice received placebo injections as before and test mice received ATO injections as before. After 24 hours all mice received I.V. injections of FAM-VAD-FMK as before. The in vivo apoptosis detection and imaging reagent was allowed to circulate through each mouse for 30 minutes. After imaging tumor-associated apoptosis in vivo, tumor tissue was collected from the window chamber by scraping the tumor out of the chamber into a trypsin solution, stirring for 30 minutes with 10 μg/ml DNase and 5 μg/ml collagenase, filtering the suspension using a […] cell strainer. Flow cytometry was then performed using a FACS Caliber flow cytometer (Becton Dickinson Immunocytometry System, San Jose, Calif.) for the analysis of apoptosis in the cell population obtained from the window chamber. All data was acquired with an event acquisition set for 10,000 events. Data was analyzed using CellQuest Pro cytometer software.

SCK mammary tumors [4] = test: SCK mammary tumor window chamber model, in vivo apoptosis imaging with FAM-VAD-FMK (488 nm, FITC filter); parameters: species or system A/J mice; conditions: 8.0 mg/kg ATO, 8 μg FAM-VAD-FMK IV, 30 min circulation
Description: as §1, §2
Apoptosis was detected by injecting the in vivo apoptosis detection reagent FAM-VAD-FMK into the tail vein of control and test mice. […]
Control mice were given FAM-VAD-FMK injections following placebo injections. […] Test mice that received ATO treatment were given FAM-VAD-FMK injections at 3 hours and 24 hours after ATO treatment, and apoptosis was evaluated as before. […]

CN1CC[C@]23c4c5ccc(O)c4O[C@H]2[C@@H](O)C=C[C@H]3[C@H]1C5 [Morphine, morphine]
enhancement of apoptosis of LPS activated cells [1]: enhanced apoptosis of LPS activated cells

arsenic trioxide [ATO]
level of hemorrhaging in tumor (SCK mammary tumors [2]; 3 hours after completion of treatment, vs placebo control): Increased levels of hemorrhaging
level of hemorrhaging in tumor (SCK mammary tumors [2]; 24 hours after completion of treatment, vs 3 hour photograph): amount of hemorrhaging has also increased over time
level of apoptosis in tumor (fluorescence, 10×) ([3]; 8.0 mg/kg ATO IP, 3 hours post ATO, 12.0 μg FAM-VAD-FMK IV, 45 min, same tumor before vs after): significant level of apoptosis; also recorded: increase in apoptosis within the tumor is clear
apoptotic cells (apoptosis induction rate) (SCK tumor cells; 24 hours after treatment, flow cytometry, 10,000 events, control mouse 18%): 39%
increase in apoptosis versus control mouse (SCK tumor cells; 24 hours, flow cytometry): two-fold increase
level of apoptosis in tumor (fluorescence) (SCK mammary tumors [4]; 3 hours post ATO): substantial increase in the level of apoptosis; also recorded: high level of apoptosis
level of apoptosis in tumor (fluorescence) (SCK mammary tumors [4]; 24 hours post ATO): even higher; also recorded: higher level of apoptosis

carboxyfluorescein-valanyl-alanyl-aspartyl(O-methyl)-fluoromethyl ketone [FAM-VAD-FMK]
in vivo detection of apoptosis in living tissue ([3]; IV injection): works for the in vivo detection of apoptosis
side-effects of the reagent in longitudinal studies ([3]; IV injection, repeated in the same animal): no side-effects
